# Measurements reported in PMC6829886, “Inhibition of Non-Small Cell Lung Cancer Cells by Oxy210, an Oxysterol-Derivative that Antagonizes TGFβ and Hedgehog Signaling” (Cells, 2019).
# Where “and” joins values, the source holds several entries; their conditions need not be identical. Equal values may be shown once.
# Key:
# [1] = Dose escalation study with repeated once daily oral dosing for 7 days in mice; type: in vivo; settings: once daily oral 50, 200 and 400 mg/kg for 7 days
# Procedure: (§1) In an initial assessment of drug-like properties of Oxy210, we performed a pharmacokinetic (PK) study in mice. Oxy210, formulated in 3% DMSO + 7% Ethanol + 5% PEG400 + 85% corn oil, was administered to balb/c mice by oral gavage as a single dose of 50 mg/kg. Plasma samples were taken at 10 min, 30 min, 1 h, 2 h, 4 h, and 8h, followed by LC/MS analysis. […] Additional PK studies in mice were performed with Oxy210 in a dose escalation study with repeated once daily oral dosing (50 mg/kg, 200 mg/kg and 400 mg/kg) for 7 days.
# [2] = target: T1, Human TGFBR2 (Homo sapiens, UniProt P37173); experiment: TGFβ receptor II kinase inhibition assay (Eurofins); type: biochemical; settings: vs. positive controls Cdk1/2 Inhibitor III and PKR Inhibitor
# T1 construct: Human TGFBR2 (amino acid 188-end); purchased Eurofins
# T1 sequence (P37173 188-567 limits assumed): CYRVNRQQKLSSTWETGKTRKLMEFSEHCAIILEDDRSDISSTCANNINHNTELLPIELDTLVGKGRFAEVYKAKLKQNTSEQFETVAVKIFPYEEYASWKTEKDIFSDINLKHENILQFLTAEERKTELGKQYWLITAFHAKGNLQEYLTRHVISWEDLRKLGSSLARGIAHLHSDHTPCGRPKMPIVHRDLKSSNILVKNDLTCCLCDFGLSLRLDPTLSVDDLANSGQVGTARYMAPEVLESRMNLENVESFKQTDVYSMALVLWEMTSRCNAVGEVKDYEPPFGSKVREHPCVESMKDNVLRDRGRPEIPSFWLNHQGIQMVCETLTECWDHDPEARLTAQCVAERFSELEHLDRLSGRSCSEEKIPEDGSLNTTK
# Procedure: Effect of Oxy210 on inhibition of TGFβ receptors I and II kinase activity was assessed by Eurofins (Celle-L’Evescault, France). TGFBR1 (h): Human TGFBR1 (amino acid 200 to end) was incubated with 8 mM MOPS pH 7.0, 0.2 mM EDTA, 1 mM MnCl2, 2 mg/mL casein, 10 mM Magnesium acetate and […] (specific activity and concentration as required). The reaction was initiated by the addition of the Mg/ATP mix. After incubation for 40 min at room temperature, the reaction was stopped by the addition of phosphoric acid to a concentration of 0.5%. 10 μL of the reaction was then spotted onto a P30 filtermat and washed four times for 4 min in 0.425% phosphoric acid and once in methanol prior to drying and scintillation counting. TGFBR2 (h): Human TGFBR2 (amino acid 188-end) was incubated with 20 mM Tris/HCl pH 8.5, 0.2 mM EDTA, 0.33 mg/mL MBP, 10 mM Magnesium acetate and [9-33P-ATP] (specific activity and concentration as required). The reaction was initiated by the addition of the Mg/ATP mix. After incubation for 120 min at room temperature, the reaction was stopped by the addition of phosphoric acid to a concentration of 0.5%. […]
# (§2) Figure 11 Inhibition of TGFβ-induced Smad2/3 phosphorylation and transcriptional activity. […] Luciferase activity was measured and normalized to the Renilla luciferase activity. […]
# [3] = system: phosphorylation of Smad2 and Smad3 in A549 cells; experiment: Western blot of TGFβ-induced Smad2/Smad3 phosphorylation; type: cell-based, human; settings: 10 μM pretreatment 3 h, TGFβ 4 ng/mL
# Procedure: A549 cells were pretreated with DMSO, Oxy186 (10 μM) or Oxy210 (10 μM) for 3 h, then treated with TGFβ (4 ng/mL) for the indicated times. After treatment, the cells were harvested in Triton lysis buffer (1% Triton X-100, 25 mM Tris-HCl, pH 7.4, 300 mM NaCl with protease and phosphatase inhibitors), and the supernatant was collected as cell lysates after centrifugation (15,000× g, 25 min at 4 °C). A Bradford assay was used to measure the protein concentration. […] proteins of each sample were loaded into the wells of an 8% SDS-PAGE gel, and the proteins were transferred to a PVDF membrane after SDS-PAGE gel separation. […] Densitometry readings were performed with ImageJ software (Version 1.52a, NIH, Bethesda, MD, USA, see Supplementary Materials).
# as §2
# [4] = Single oral dose pharmacokinetic study in mice; type: in vivo; settings: mouse, plasma, oral gavage, single dose 50 mg/kg
# Procedure: as §1
# Figure 13 Drug-like properties of Oxy210. (a) A single dose of Oxy210 at 50 mg/kg, formulated in 3% DMSO + 7% Ethanol + 5% PEG400 + 85% corn oil, was administered to balb/c mice by oral gavage. Plasma samples were taken at 10 min, 30 min, 1h, 2h, 4h, 6h, and 8h, followed by LC/MS analysis of the plasma. (b) Evolution of Oxy210 and Oxy186 from parent compound Oxy16 and their drug-like properties.
# [5] = system: Liver X Receptor (LXR); experiment: LXR activity, summary of drug-like properties; type: cell-based
smiles,measurement,setting,value
"C[C@]12CC[C@H]3[C@@H](CC=C4C[C@@H](O)CC[C@@]43C)[C@@H]1CC[C@@H]2[C@](C)(O)CCc1cccnc1 [Oxy210, (3S,8S,9S,10R,13S,14S,17S)-17-((R)-2-hydroxy-4-(pyridin-3-yl)butan-2-yl)-10,13-dimethyl-2,3,4,7,8,9,10,11,12,13,14,15,16,17-tetradecahydro-1H-cyclopenta[a]phenanthren-3-ol]",PK linearity,[1],linear PK parameters and exposure
same,tolerability,[1],well tolerated and apparently safe
same,inhibitory activity on TβRII in functional kinase assay,[2],did not display significant inhibitory activity
same,TGFβ-induced phosphorylation of Smad2 and Smad3,[3],robustly inhibited
same,MRT,"[4]; balb/c, po, 50 mg/kg, read-out: mean residence time (MRT)",8 h
same,AUC(0-inf),[4]; balb/c mice,9210 ng·h/mL
same,Tmax,[4]; balb/c mice,0.5 h
same,Cmax,[4]; balb/c mice,1970 ng/mL and 4.7 µM
same,LXR activity,[5],devoid of undesirable Liver X Receptor (LXR) activity
